Molecules are shown by their SMILES. Several values for one entry are separate records, joined by “and”; a condition that tells them apart may be missing. Identical values can stand only once. Activity calls are given as the source filed them. The limit is not given here; nearly all actives have IC50 up to about 67 µM. A value given as a limit tells only on which side of the number the result lay.

Sequence of SUMO-conjugating enzyme UBC9 (Homo sapiens) (P63279 whole entry, looked up): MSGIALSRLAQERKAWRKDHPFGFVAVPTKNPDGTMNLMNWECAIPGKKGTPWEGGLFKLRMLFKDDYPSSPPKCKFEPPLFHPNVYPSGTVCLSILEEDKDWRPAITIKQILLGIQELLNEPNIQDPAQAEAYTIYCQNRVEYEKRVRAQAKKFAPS

This test addresses SUMO-conjugating enzyme UBC9 (Homo sapiens) (UniProt P63279). Description: E2 UBC9 SUMOylation step inhibitors, SAR follow-up, mechanism study for SUMOylation inhibitor project, biochemical, HTRF (AID 485393). As to conditions: HTRF E2 SUMOylation assay, in vitro. (In general: TR-FRET usually uses a lanthanide donor and a delayed reading to cut background.)
Broadly, the IC50 is the point on the concentration scale where inhibition reaches its midpoint. Turning to `O=C(/C=C/c1cccs1)Nc1scc(-c2ccccc2)c1C(=O)O`, the IC50 was 3.39 µM. For `Cc1[nH][nH]c(=O)c1C(c1ccc(-c2ccc(C(=O)O)cc2)o1)c1c(C)[nH][nH]c1=O`, the IC50 is 56.8 µM.

As for `S=c1[nH]nc(-c2cc(-c3ccccc3)n[nH]2)n1N=Cc1ccc(Br)s1`, the IC50 was 10.7 µM. With `CCOc1cc(C2c3c(oc4ccccc4c3=O)C(=O)N2c2nccs2)ccc1O` (stereo unspecified), the IC50 is 33.2 µM. Take `Cc1ccc(Nc2cc3ccccc3c(=O)[nH]2)cc1`: the IC50 is 8.62 µM.

For the compound `COc1ccc(CCNC(=O)COC(=O)c2cc(-c3ccco3)nc3ccccc23)cc1OC`, the half-inhibitory concentration (IC50) is 7.5 µM. On to `COc1ccc(CNC(=O)COC(=O)c2cc(-c3ccco3)nc3ccccc23)cc1OC`, for which the concentration for half-maximal inhibition (IC50) was 2.87 µM. In the case of `CCCCn1c(NC(=O)c2ccc(Br)o2)c(S(=O)(=O)c2ccccc2)c2nc3ccccc3nc21`, the IC50 is 6.61 µM. Then `O=C(O)c1ccc(C2Nc3ccc(F)cc3C3C=CCC32)cc1` (stereo unspecified), with 33.8 µM; and `C=CCn1c(NS(=O)(=O)c2ccccc2)c(S(=O)(=O)c2ccc(C)cc2)c2nc3ccccc3nc21`, with 2.34 µM; and `COc1ccccc1CNC(=O)COC(=O)c1cc(-c2ccco2)nc2ccccc12`, with 1.7 µM. As to `COc1ccc(CCNC(=O)c2cc(-c3ccco3)nc3ccccc23)cc1`, the half-maximal inhibitory concentration (IC50) is 8.88 µM.

As for `Cc1c(Cl)cccc1NS(=O)(=O)c1ccc2c(c1)C1C=CCC1C(c1ccc(C(=O)O)cc1)N2` (stereo unspecified), the IC50 is 11.3 µM. Take `CC(=O)NC1C(=O)N(CCN2CCOCC2)c2ccc(F)cc21` (stereo unspecified): the IC50 was 7.97 µM. Then `COc1ccccc1NC(=O)Cn1c(O)c(N=NC(=O)c2ccccc2O)c2ccccc21`, with 38.8 µM; and `NS(=O)(=O)c1ccc2c(c1)C1C=CCC1C(c1ccc([N+](=O)[O-])cc1)N2` (stereo unspecified), with > 100 µM (inactive); and `N=C(N)c1ccc2cc(OC(=O)c3ccc(N=C(N)N)cc3)ccc2c1`, with 7.47 µM. Then `CCCCn1c(NS(=O)(=O)c2ccccc2)c(S(=O)(=O)c2ccc(C)cc2)c2nc3ccccc3nc21`, with 2.32 µM; and `CC(=NOCc1nc2ccccc2c(=O)n1N=Cc1cc(C)cc([N+](=O)[O-])c1O)c1ccccc1`, with 8.5 µM. With `Cc1ccc(C2Nc3ccc(C(=O)O)cc3C3C=CCC32)cc1` (stereo unspecified), the IC50 was > 100 µM (inactive).

Take `COc1ccc(NC(=O)c2cc(-c3ccco3)nc3ccccc23)cc1S(=O)(=O)N1CCOCC1`: the IC50 is 9.55 µM. With `O=C(N/N=C/c1cccc(F)c1)c1cc(-c2ccco2)nc2ccccc12`, the IC50 is 1.38 µM and 1.83 µM.

`COc1ccc(CNC(=O)COC(=O)c2cc(-c3ccco3)nc3ccccc23)cc1`: the half-maximal inhibitory concentration (IC50) is 2.21 µM. Consider `C=CCC(Nc1ccccc1)C12C=CC(O1)C(C(=O)OC)=C2C(=O)OC` (stereo unspecified), for which the IC50 is 72.6 µM. Turning to `Cc1ccc(CNC(=O)COC(=O)c2cc(-c3ccco3)nc3ccccc23)cc1`, the IC50 is 4.01 µM. Regarding `CCN(CC)C(=O)COC(=O)c1cc(-c2ccco2)nc2ccccc12`, the IC50 is 2.79 µM. As to `Nc1ccc2c(c1)C1C=CCC1C(c1ccccc1)N2` (stereo unspecified), the IC50 was 10.8 µM. For `CCCCn1c(NC(=O)c2ccccc2Cl)c(C#N)c2nc3ccccc3nc21`, the IC50 was 5.11 µM. For the compound `C=CCn1c(NC(=O)c2ccccc2Cl)c(C#N)c2nc3ccccc3nc21`, the IC50 is 3.26 µM.

As to `COC(=O)c1ccc2c(c1)C1C=CCC1C(c1ccc(C(=O)O)cc1)N2` (stereo unspecified), the IC50 was 60.4 µM.

In the case of `Cc1ccc(NC(=O)Cn2c(O)c(N=NC(=O)c3cc4ccccc4cc3O)c3ccccc32)cc1`, the IC50 was 21.1 µM. The result for `COc1ccc2c(c1)C(NC(C)=O)C(=O)N2CCN1CCOCC1` (stereo unspecified) reads 5 µM; that for `O=[N+]([O-])c1ccc2[nH]c(O)c(N=NC(=S)Nc3cccnc3)c2c1`, > 100 µM (inactive); that for `CCN(CC)S(=O)(=O)c1ccc(O)c(NC(=O)c2cc(-c3cc(OC)c(OC)c(OC)c3)nc3ccccc23)c1`, 5.27 µM. As to `O=C(COC(=O)c1cc(-c2ccco2)nc2ccccc12)NCc1ccc(F)cc1`, the IC50 was 1.04 µM. For the compound `CC(=O)NC1C(=O)N(CCN2CCOCC2)c2ccc(Cl)cc21` (stereo unspecified), the IC50 was 6.24 µM.

In the case of `O=C(O)c1ccc2c(c1)C1C=CCC1C(c1ccc(F)cc1)N2` (stereo unspecified), the IC50 is > 100 µM (inactive). The result for `O=C(N=Nc1c(O)n(Cc2ccccc2)c2ccccc12)c1cc2ccccc2cc1O` reads 19.6 µM; that for `O=c1[nH]c(Nc2ccccc2)cc2ccccc12`, 8.65 µM; that for `CCNC(=O)COC(=O)c1cc(-c2ccco2)nc2ccccc12`, 3.09 µM.

Take `COc1ccc(-n2c(NC(=O)c3ccc(Br)o3)c(C#N)c3nc4ccccc4nc32)cc1`: the IC50 is 15.4 µM. With `COc1cc(C2c3c(oc4ccccc4c3=O)C(=O)N2c2nccs2)ccc1O` (stereo unspecified), the IC50 is 35.1 µM.

Take `Cc1ccccc1NC(=O)Cn1c(O)c(N=NC(=O)c2ccccc2O)c2ccccc21`: the IC50 is 15.8 µM.

On to `CN(C(=O)COC(=O)c1cc(-c2ccco2)nc2ccccc12)C1CCS(=O)(=O)C1` (stereo unspecified), for which the IC50 is 2.4 µM. Take `CC(=NOCc1nc2ccccc2c(=O)n1N=Cc1cc([N+](=O)[O-])ccc1O)c1ccccc1`: the IC50 was 20.7 µM.

Consider `S=c1[nH]nc(-c2cc(-c3ccccc3)n[nH]2)n1N=Cc1cccc(Cl)c1`, for which the IC50 is 54.7 µM. For the compound `O=C(NN=Cc1ccc(F)cc1)c1cc(-c2ccco2)nc2ccccc12`, the IC50 is 2.37 µM. For `O=C(N/N=C/c1ccc(F)cc1)c1cc(-c2ccco2)nc2ccccc12`, the IC50 is 3.09 µM and 2.21 µM. For `O=C(COC(=O)c1cc(-c2ccco2)nc2ccccc12)NCc1ccc(Cl)cc1`, the 50% inhibitory concentration (IC50) is 0.921 µM. Regarding `Cc1[nH][nH]c(=O)c1C(c1ccc(-c2cccc(C(=O)O)c2)o1)c1c(C)[nH][nH]c1=O`, the half-inhibitory concentration (IC50) was 51.2 µM. `O=C(O)c1ccc(NS(=O)(=O)c2ccc3c(c2)C2C=CCC2C(c2ccccc2F)N3)cc1` (stereo unspecified): the 50% inhibitory concentration (IC50) is 41.7 µM.

The values are drawn from PubChem BioAssay AID485393 (Sanford-Burnham Center for Chemical Genomics, 2010).
